Test results taken from patent US11649430B2 (priority 2018, dated 2023).
Entries after “also recorded” stand apart in the source; their conditions may differ.

Columns and labels:
A. nidulans = test: Germination assay with purified imizoquins, A. nidulans; type: cell-based, Aspergillus nidulans
Procedure: (§1) Germination Assay: Each strain was grown in triplicate in 2 mL of liquid GMM inoculated with 1×10^5 spores mL^−1 in a well of a sterile Costar® 12-well plate (Corning) and incubated at 30° C. in OKO-Lab microscopic enclosure equipped with a Nikon Eclipse Ti inverted microscope. Germinated spores were observed using a Nikon Plan Fluor 20xPh1 DLL objective and phase-contrast microscope. A spore was considered germinated when the length of the spore protrusion (emerging hyphal tip) exceeded the spore's diameter^15,33. Images were captured hourly using the Nikon NIS Elements AR software package (v. 4.13), and the germination rate was determined by counting germlings per hundred spores. The experiment was repeated three times.
(§2) Germination Assay with Purified Imizoquins. Compounds 1-2 were assessed for their effect on germination of different fungal strains. Each metabolite was dissolved in methanol at a starting concentration of 10 mg mL^−1 and stored at −80° C. Sterile Costar® 96 well plates containing 100 μL of GMM supplemented with various concentrations of purified 1-2 (0.1 mM, 0.2 mM, 0.4 mM, 0.8 mM and 1.2 mM) were inoculated at 1×10^5 spores/well. Spores treated with equivalent volumes of the carrier (methanol) served as negative controls for each experiment. The germination rate (%) was measured as above with each treatment assayed in triplicate.

A. flavus [1] = test: Germination ROS assay (H2O2 plus imizoquin A); type: cell-based, Aspergillus flavus; conditions: 0.7 mM H2O2, 0.1, 0.2, 0.4 mM compound
A. flavus [2] = type: cell-based, Aspergillus flavus; conditions: for germination rate: 0.1 mM, 0.2 mM, 0.4 mM
A. fumigatus = test: Germination assay with purified imizoquins, A. fumigatus; type: cell-based, Aspergillus fumigatus
Procedure: as §1, §2

[3] = Antioxidant Assay (OxiSelect Total Antioxidant Capacity Assay Kit); type: biochemical; conditions: 0-1 mM; compared to uric acid; absorbance 490 nm (Supporting Figure S9)
Procedure: Antioxidant Assay: ROS quenching potential of the imizoquins was analyzed using the OxiSelect™ Total Antioxidant Capacity Assay Kit (Cell Biolabs, Inc., San Diego, Calif.) following the manufacturer's instructions. Briefly, 20 μL of diluted uric acid standards (0-1 mM) and imizoquins (0-1 mM) were combined with 180 μL of 1× reaction buffer/well in a Costar® 96 well plate. After mixing thoroughly, an initial absorbance was obtained at 490 nm using a BioTek EPOCH 2 microplate reader with Gen5 acquisition software. Then 50 μL of the 1× copper ion reagent was added into each well and the plate was incubated for 5 minutes on an orbital shaker. To terminate the reaction, 50 μL of 1× stop solution was added and the final absorbance was measured again at 490 nm.

A. oryzae = test: Germination assay with purified imizoquins, A. oryzae; type: cell-based, Aspergillus oryzae
Procedure: as §1, §2

R. solanacearum = type: cell-based, Ralstonia solanacearum; conditions: WT (GMI1000) strain; 0.4 mM; 24 hours
Penicillium expansum = test: Germination assay with purified imizoquins, Penicillium expansum; type: cell-based
Procedure: as §1, §2

Structure (SMILES) | germination rate in the presence of H2O2 (A. flavus [1]; WT strain) | germination rate in the presence of H2O2 (A. flavus [1]; ΔimqK strain) | germination rate (A. flavus [2]) | antioxidant activity (ROS quenching potential) [3] | R. solanacearum growth (OD) (R. solanacearum) | germination (A. flavus [2]) | further results
OO [H2O2, hydrogen peroxide] |  |  |  |  |  |  | spore survival (A. flavus spores): 50%
COC1=C(O)C(=O)C2=C(C1=O)[C@H]1N[C@@H](Cc3c[nH]c4ccccc34)C(=O)N1C(C(=O)N[C@@H](CC(C)CO)C(=O)O)C2 (stereo partly shown) [Imizoquin A, imizoquin A] | counteracted the germination inhibitory activity of H2O2 | counteracted the germination inhibitory activity of H2O2 | restores germination in the ΔimqK mutant in a dose-dependent manner; also recorded: increased germination of both ΔimqK and WT to above that of untreated OE::imqK | significant antioxidant activities | decreases R. solanacearum growth modestly |  | germination rate (A. nidulans): increases the germination rate; concentration up to which the germination effect is dose-dependent (A. nidulans; A. nidulans): about 0.4 mM; germination rate in the presence of H2O2 (A. flavus [1]; WT strain, listed as imizoquin A): protected spores from the germination inhibitory effects of H2O2; germination rate in the presence of H2O2 (A. flavus [1]; ΔimqK strain, listed as imizoquin A): protected spores from the germination inhibitory effects of H2O2; germination rate (A. fumigatus): increases the germination rate; concentration up to which the germination effect is dose-dependent (A. fumigatus; A. fumigatus): about 0.4 mM; concentration up to which the germination effect is dose-dependent (A. oryzae; A. oryzae): about 0.4 mM; germination rate (A. oryzae; A. oryzae (Supporting Figure S8)): increases the germination rate; concentration up to which the germination effect is dose-dependent (Penicillium expansum): about 0.4 mM; germination rate (Penicillium expansum): increased the germination rate
COC1=C(O)C(=O)C2=C(C1=O)[C@H]1N[C@@H](Cc3c[nH]c4ccccc34)C(=O)N1C(C(=O)N[C@@H](CC(CO)CO)C(=O)O)C2 (stereo partly shown) [Imizoquin B, imizoquin B] | protected spores from the germination inhibitory effects of H2O2 | protected spores from the germination inhibitory effects of H2O2 | restores germination in the ΔimqK mutant in a dose-dependent manner; also recorded: increased germination of both ΔimqK and WT to above that of untreated OE::imqK | significant antioxidant activities | decreases R. solanacearum growth modestly |  | 
COc1c(O)cc2c(c1O)CN(C(=O)[C@@H](N)Cc1c[nH]c3ccccc13)[C@H](C(=O)N[C@@H](CC(CO)CO)C(=O)O)C2 [TMC-2A, reference compound] |  |  |  | showed antioxidant properties |  | similarly accelerated germination | 
COc1c(O)cc2c(c1O)CN(C(=O)[C@@H](N)Cc1c[nH]c3ccccc13)[C@H](C(=O)N[C@@H](CC(C)CO)C(=O)O)C2 (stereo partly shown) [TMC-2B, reference compound] |  |  |  | showed antioxidant properties |  | similarly accelerated germination | 
